For the assay, the target named is TPK enzyme (Homo sapiens (Human), UniProt Q9H3S4). As to the kind of experiment: TPK enzyme activity test. The following applies: for Emax: calculated with the effect of DMSO on TPK enzyme activity as 100%, read-out: Emax; for EC50: promoting effect on TPK enzyme activity. The format is biochemical.

The values that follow come from US20250388584A1, “TPK AGONIST AND METHOD FOR TREATING NEURODEGENERATIVE DISEASES USING SAME” (SHANGHAI RAISING PHARMACEUTICAL CO., LTD., priority 2022, published 2025).

Structures are written as SMILES. Where a name gives a salt, the structure may show the parent alone.

TPK enzyme, sequence (Q9H3S4 whole entry): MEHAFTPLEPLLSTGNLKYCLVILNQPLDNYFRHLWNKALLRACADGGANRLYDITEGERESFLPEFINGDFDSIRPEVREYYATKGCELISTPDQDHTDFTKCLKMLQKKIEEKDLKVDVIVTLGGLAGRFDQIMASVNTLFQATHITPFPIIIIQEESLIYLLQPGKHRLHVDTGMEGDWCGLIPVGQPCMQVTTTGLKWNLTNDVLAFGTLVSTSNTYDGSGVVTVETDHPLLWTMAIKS

As for `Cc1ccc2[nH]c3c(=O)n(CCC(=O)N4CCN(c5cc(C(F)(F)F)cc(C(F)(F)F)c5)CC4)cnc3c2c1` [Compound 16, 3-(3-(4-(3,5-bis(trifluoromethyl)phenyl)piperazin-1-yl)-3-oxopropyl)-8-methyl-3,5-dihydro-4H-pyrimido[5,4-b]indol-4-one], the Emax (usually the size of the effect at its maximum, as opposed to the concentration needed) was 144% and the concentration giving a half-maximal response (EC50) (usually the concentration at which the effect is half-maximal) turned out to be 360 nM.

Turning to `COC(=O)C1CCCCN1CCCN1c2ccccc2Sc2ccccc21` (centres unmarked) [Formate salt of 191, methyl 1-(3-(10H-phenothiazin-10-yl)propyl)piperidin-2-carboxylate], the Emax was 131% and the 50% effective concentration (EC50) is 5600 nM.

On to `Cc1ccc2[nH]c3c(=O)n(CCC(=O)N4CCN(c5ccccc5F)CC4)cnc3c2c1` [Compound 40], for which the Emax was 125%.

Take `O=C1CCCCN1CCCN1CCSc2ccc(C(F)(F)F)cc21` [Compound 194, 1-(3-(6-(trifluoromethyl)-2,3-dihydro-4H-benzo[b][1,4]thiazin-4-yl)propyl)piperidin-2-one]: the Emax was 139%.

Turning to `Cc1ccc2[nH]c3c(=O)n(CCC(=O)N4CCN(c5cccc(Br)c5)CC4)cnc3c2c1` [Compound 18, 3-(3-(4-(3-bromophenyl)piperazin-1-yl)-3-oxopropyl)-8-methyl-3,5-dihydro-4H-pyrimido[5,4-b]indol-4-one], the Emax was 159%.

As for `COc1cccc(CNC(=O)CCn2cnc3c([nH]c4ccc(C)cc43)c2=O)c1` [Compound 81], the Emax was 123%.

`O=C1CCc2ccc(OCCCCCN3c4ccccc4Sc4ccc(C(F)(F)F)cc43)cc2N1` [Compound 206, 7-((5-(2-(trifluoromethyl)-10H-phenothiazin-10-yl)pentyl)oxy)-3,4-dihydroquinolin-2(1H)-one]: the Emax was 165% and the concentration giving a half-maximal response (EC50) was 1450 nM.

`Cc1ccc2[nH]c3c(=O)n(CCC(=O)N4CCN(c5cccc(N)c5)CC4)cnc3c2c1` [Compound 26, 3-(3-(4-(3-aminophenyl)piperazin-1-yl)-3-oxopropyl)-8-methyl-3,5-dihydro-4H-pyrimido[5,4-b]indol-4-one]: the maximal effect (Emax) was 166% and the EC50 came out at 2620 nM.

Turning to `COC(=O)c1cccc(CNC(=O)CCn2cnc3c([nH]c4ccc(C)cc43)c2=O)c1` [Compound 83, methyl 3-((3-(8-methyl-4-oxo-4,5-dihydro-3H-pyrimido[5,4-b]indol-3-yl)propanamido)methyl)benzoate], the maximum response (Emax) is 126%.

As for `Cc1ccc2[nH]c3c(=O)n(CCNC(=O)Cc4cccc(C(F)(F)F)c4)cnc3c2c1` [Compound 72, N-(2-(8-methyl-4-oxo-4,5-dihydro-3H-pyrimido[5,4-b]indol-3-yl)ethyl)-2-(3-(trifluoromethyl)phenyl)acetamide], the maximal effect (Emax) was 122%.

Consider `Cc1ccc2[nH]c3c(=O)n(CCC(=O)N4CCN(c5cc(Cl)ccc5C)CC4)cnc3c2c1` [Compound 42], for which the Emax is 156% and the EC50 was found to be 3960 nM.

Consider `O=C(N[C@@H](Cc1ccc(F)cc1)C(=O)O)OCC1c2ccccc2-c2ccccc21` [Compound 141], for which the Emax was 204% and the EC50 is 4070 nM.

Take `O=C(CCN1c2ccccc2Sc2ccccc21)NCCN1CCOCC1` [Compound 200]: the Emax was 168% and the EC50 is 2.94 nM.

In the case of `O=C1c2ccccc2CN1CCCN1c2ccccc2Sc2ccccc21` [Compound 189, 2-(3-(10H-phenothiazin-10-yl)propyl)isoindolin-1-one], the Emax was 180% and a half-maximal effect (EC50) was put at 1200 nM.

Turning to `Cc1ccc2[nH]c3c(=O)n(CCC(=O)NCc4cccc(S(N)(=O)=O)c4)cnc3c2c1` [Compound 88], the Emax is 124%.

`O=C(Cn1cnc2c(oc3ccccc32)c1=O)N1CCN(c2cccc(C(F)(F)F)c2)CC1` [Compound 58]: the Emax is 147%.

Regarding `Cc1ccc2[nH]c3c(=O)n(CCCN4CCN(c5cccc(Cl)c5Cl)CC4)cnc3c2c1` [Diformate salt of 52, 3-(3-(4-(2,3-dichlorophenyl)piperazin-1-yl)propyl)-8-methyl-3,5-dihydro-4H-pyrimido[5,4-b]indol-4-one], the maximal response (Emax) is 195% and the EC50 came out at 1280 nM.

Take `Cc1ccc2[nH]c3c(=O)n(CCC(=O)NCCNc4ccc5c(c4)CCCC5)cnc3c2c1` [Compound 131, 3-(8-methyl-4-oxo-4,5-dihydro-3H-pyrimido[5,4-b]indol-3-yl)-N-(2-((5,6,7,8-tetrahydronaphthalen-2-yl)amino)ethyl)propanamide]: the Emax is 193%.

Consider `COc1cccc(N2CCN(C(=O)CCn3cnc4c([nH]c5ccc(C)cc54)c3=O)CC2)c1` [Compound 43], for which the Emax was 137%.

As to `Cc1ccc2[nH]c3c(=O)n(CCC(=O)N4CCN(c5ccc(S(=O)(=O)N6CCCCC6)cc5)CC4)cnc3c2c1` [Compound 169, 8-methyl-3-(3-oxo-3-(4-(4-(piperidin-1-ylsulfonyl)phenyl)piperazin-1-yl)propyl)-3,5-dihydro-4H-pyri mid[5,4-b]indol-4-one], the Emax is 147% and the EC50 was 2140 nM.

With `Cc1ccc2[nH]c3c(=O)n(CCC(=O)N4CCN(c5ccc(Cl)cc5Cl)CC4)cnc3c2c1` [Compound 7, 3-(3-(4-(2,4-dichlorophenyl)piperazin-1-yl)-3-oxopropyl)-8-methyl-3,5-dihydro-4H-pyrimido[5,4-b]indol-4-one], the maximum response (Emax) is 148% and the EC50 is 2320 nM.

For the compound `Cc1ccc2[nH]c3c(=O)n(CCC(=O)NCCNc4cccc(C(F)(F)F)c4)cnc3c2c1` [Compound 89, 3-(8-methyl-4-oxo-4,5-dihydro-3H-pyrimido[5,4-b]indol-3-yl)-N-(2-((3-(trifluoromethyl)phenyl)amino)ethyl)propanamide], the Emax was 132%.

As for `Cc1ccc2[nH]c3c(=O)n(CCC(=O)N4CCN(c5cccc(C(F)(F)F)c5)CC4)cnc3c2c1` [Compound 61], the Emax was 172% and the EC50 was 1210 nM.

On to `Cc1ccc(C)c(N2CCN(C(=O)CCn3cnc4c([nH]c5ccc(C)cc54)c3=O)CC2)c1` [Compound 34], for which the maximal effect (Emax) was 167% and a half-maximal effect (EC50) was put at 1370 nM.

For the compound `Cc1ccc2[nH]c3c(=O)n(CCC(=O)N4CCC(O)(c5cccc(C(F)(F)F)c5)CC4)cnc3c2c1` [Compound 165, 3-(3-(4-hydroxy-4-(3-(trifluoromethyl)phenyl)piperidin-1-yl)-3-oxopropyl)-8-methyl-3,5-dihydro-4H-pyrimido[5,4-b]indol-4-one], the Emax is 157% and a half-maximal effect (EC50) was put at 2490 nM.

`Cc1ccc2[nH]c3c(=O)n(CCC(=O)N4CCN(c5cccc(S(=O)(=O)N6CCCCC6)c5)CC4)cnc3c2c1` [Compound 170, 8-methyl-3-(3-oxo-3-(4-(3-(piperidin-1-ylsulfonyl)phenyl)piperazin-1-yl)propyl)-3,5-dihydro-4H-pyrimido[5,4-b]indol-4-one]: the Emax is 151% and the EC50 stood at 2370 nM.

On to `Cc1ccc2[nH]c3c(=O)n(CCCC(=O)N4CCN(c5cccc(Cl)c5Cl)CC4)cnc3c2c1` [Compound 15, 3-(4-(4-(2,3-dichlorophenyl)piperazin-1-yl)-4-oxobutyl)-8-methyl-3,5-dihydro-4H-pyrimido[5,4-b]indol-4-one], for which the Emax was 145% and the EC50 stood at 463 nM.

`Cc1ccc2[nH]c3c(=O)n(CCC(=O)N4CCN(c5ccccc5)CC4)cnc3c2c1` [Compound 32]: the Emax is 123%.
